Assay results published in US20060252807A1, “Novel ortho-terphenyl inhibitors of p38 kinase and methods of treating inflammatory disorders” (Kalypsys, Inc., priority 2005, published 2006).

target: T1, active p38 alpha enzyme (Upstate Biotechnology) (Homo sapiens, UniProt Q16539); experiment: p38α biochemical assay (ATP turnover, luminescent detection, Cambrex PKlight); settings: p38α biochemical assay, Table 1 Biological Activity
T1 construct: purchased Upstate Biotechnology
In short: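 Active p38α phosphorylates MapkapK2 whole protein with 1.4 uM final ATP, 2 h at 30C, in Tris/MOPS buffer with MgCl2, CaCl2, EGTA, EDTA, glycerol, β-mercaptoethanol and 1 mg/ml BSA. Compounds pin-delivered from DMSO; total ATP turnover read by luminescence after PKlight addition.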

T1 sequence (Q16539 whole entry): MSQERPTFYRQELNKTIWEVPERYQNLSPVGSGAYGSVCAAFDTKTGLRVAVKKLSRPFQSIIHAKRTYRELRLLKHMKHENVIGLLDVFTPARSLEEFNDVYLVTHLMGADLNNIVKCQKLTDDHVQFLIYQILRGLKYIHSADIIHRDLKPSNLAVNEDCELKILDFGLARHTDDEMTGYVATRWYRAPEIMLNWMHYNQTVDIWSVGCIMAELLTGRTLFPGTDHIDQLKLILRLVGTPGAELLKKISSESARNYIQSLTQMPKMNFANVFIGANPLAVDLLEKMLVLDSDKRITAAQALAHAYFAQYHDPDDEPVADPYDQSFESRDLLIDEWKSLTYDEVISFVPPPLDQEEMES

SMILES	IC50 [nM]
Cc1nc(-c2ccc(F)cc2)c(-c2nc(C(=O)NC3CCC3)cs2)s1 [Example 50, 4′-(4-Fluoro-phenyl)-2′-methyl-|2,5′|bithiazolyl-4-carboxylic acid cyclobutylamide]	≤ 1000
CCCOc1ccc(C(=O)N2CCN(Cc3nc(-c4ccc(F)cc4)c(-c4nc(C(=O)NC(C)C)cs4)o3)CC2)cc1 [Example 455]	> 1000
CC(C)NC(=O)c1csc(-c2c(-c3ccc(F)cc3)noc2CNC(=O)c2cc(Cl)ccc2O)n1 [Example 671]	> 1000
Cc1[nH]nc(-c2ccc(F)cc2)c1-c1nc(C(=O)NCc2ccncc2)cs1 [Example 77, 2-|3-(4-Fluoro-phenyl)-5-methyl-1H-pyrazol-4-yl|-thiazole-4-carboxylic acid (pyridin-4-ylmethyl)-amide]	≤ 1000
CCCCCCCC(=O)NCc1onc(-c2ccc(F)cc2)c1-c1nc(C(=O)NC(C)C)cs1 [Example 603]	> 1000
CC(C)NC(=O)c1csc(-c2oc(CNC(=O)/C=C/c3ccccc3)nc2-c2ccc(F)cc2)n1 [Example 131]	≤ 1000
Cc1ccc(C(=O)N2CCN(Cc3nc(-c4ccc(F)cc4)c(-c4nc(C(=O)NC(C)C)cs4)o3)CC2)cc1C [Example 376]	> 1000
CCOC(=O)CC(=O)N1CCN(Cc2nc(-c3ccc(F)cc3)c(-c3nc(C(=O)NC(C)C)cs3)o2)CC1 [Example 357]	≤ 1000
CC(C)NC(=O)c1csc(-c2c(-c3ccc(F)cc3)noc2CNC(=O)Cc2ccc(O)c(Cl)c2)n1 [Example 715]	> 1000
COc1ccc(C(=O)N2CCN(Cc3nc(-c4ccc(F)cc4)c(-c4nc(C(=O)NC(C)C)cs4)o3)CC2)cc1O [Example 426]	≤ 1000
Cc1onc(-c2ccc(Cl)cc2)c1-c1ccn(C(=O)NC2CCCCC2)n1 [Example 8, 3-|3-(4-Chloro-phenyl)-5-methyl-isoxazol-4-yl|-pyrazole-1-carboxylic acid cyclohexylamide]	≤ 1000
CCC(=O)C(=O)NCc1onc(-c2ccc(F)cc2)c1-c1nc(C(=O)NC(C)C)cs1 [Example 577]	> 1000
CC(C)NC(=O)c1csc(-c2oc(CN3CCN(C(=O)C(NC(=O)OC(C)(C)C)C(C)C)CC3)nc2-c2ccc(F)cc2)n1 (stereo not shown) [Example 536]	> 1000
CCC(C(=O)N1CCN(Cc2nc(-c3ccc(F)cc3)c(-c3nc(C(=O)NC(C)C)cs3)o2)CC1)c1ccccc1 (stereo not shown) [Example 411]	> 1000
CC(C)NC(=O)c1csc(-c2oc(CNC(=O)c3cc(F)c(F)c(O)c3F)nc2-c2ccc(F)cc2)n1 [Example 254]	> 1000
COc1ccc(OC)c(C(=O)NCc2nc(-c3ccc(F)cc3)c(-c3nc(C(=O)NC(C)C)cs3)o2)c1 [Example 224]	> 1000
CC(=O)Oc1ccc(C(=O)N2CCN(Cc3nc(-c4ccc(F)cc4)c(-c4nc(C(=O)NC(C)C)cs4)o3)CC2)cc1 [Example 450]	> 1000
Cc1ccc(F)cc1C(=O)NCc1onc(-c2ccc(F)cc2)c1-c1nc(C(=O)NC(C)C)cs1 [Example 625]	> 1000
CC(C)NC(=O)c1csc(-c2oc(CN3CCN(C(=O)C(Cc4ccccn4)NC(=O)OC(C)(C)C)CC3)nc2-c2ccc(F)cc2)n1 (stereo not shown) [Example 569]	> 1000
CC(C)NC(=O)c1csc(-c2c(-c3ccc(F)cc3)noc2CNC(=O)c2ccc(C(C)C)cc2)n1 [Example 646]	> 1000
CC(C)NC(=O)c1csc(-c2oc(CNC(=O)/C=C/c3ccc(Cl)cc3)nc2-c2ccc(F)cc2)n1 [Example 230]	≤ 1000

same assay, conditions: p38α kinase; Table 1 Biological Activity

SMILES	IC50 [nM]
CC(C)NC(=O)c1csc(-c2c(-c3ccc(F)cc3)noc2CNCc2ccc(Cl)cc2Cl)n1 [Example 1496]	> 1000
CC(C)NC(=O)c1csc(-c2c(-c3ccc(F)cc3)noc2CN2CCN(c3ccc(C(F)(F)F)cn3)CC2)n1 [Example 1626]	> 1000
Cc1nc(-c2ccc(F)cc2)c(-c2nc(C(=O)Nc3ccc(C(F)(F)F)cc3)cs2)s1 [Example 2005]	> 1000
CC(C)NC(=O)c1csc(-c2oc(CN3C[C@@H](C)N[C@@H](C)C3)nc2-c2ccc(F)cc2)n1 [Example 1210]	> 1000
Cc1nc(-c2ccc(F)cc2)c(-c2nc(C(=O)N3CCN(CC4CCCCC4)CC3)cs2)s1 [Example 1906]	> 1000
CC(C)NC(=O)c1csc(-c2c(-c3ccc(F)cc3)n[nH]c2C2CCN(C(=O)C3CN(C(=O)OC(C)(C)C)CCN3)CC2)n1 (stereo not shown) [Example 1028]	> 1000
CC(C)NC(=O)c1csc(-c2c(-c3ccc(F)cc3)n[nH]c2C2CCN(C(=O)c3ccc(Cl)c([N+](=O)[O-])c3)CC2)n1 [Example 988]	≤ 1000
CC(C)NC(=O)c1csc(-c2oc(CN3CCN(c4ccc(C(F)(F)F)cc4)CC3)nc2-c2ccc(F)cc2)n1 [Example 1296]	> 1000
CCN(CC)CCN(Cc1ccccc1)Cc1nc(-c2ccc(F)cc2)c(-c2nc(C(=O)NC(C)C)cs2)o1 [Example 1281]	> 1000
Cc1nc(-c2ccc(F)cc2)c(-c2nc(C(=O)NCCCCO)cs2)s1 [Example 1730]	≤ 1000
CC(C)NC(=O)c1csc(-c2oc(CNCc3ccco3)nc2-c2ccc(F)cc2)n1 [Example 1076]	> 1000
CCC(CO)NC(=O)c1csc(-c2sc(C)nc2-c2ccc(F)cc2)n1 (stereo not shown) [Example 1728]	≤ 1000
CC(C)NC(=O)c1csc(-c2oc(CNCC#N)nc2-c2ccc(F)cc2)n1 [Example 1052]	> 1000
CC(C)NC(=O)c1csc(-c2c(-c3ccc(F)cc3)n[nH]c2C2CCN(C(=O)c3ccc4cccc(O)c4n3)CC2)n1 [Example 960]	> 1000
Cc1nc(-c2ccc(F)cc2)c(-c2nc(C(=O)N3CCCC(c4ccc(C(F)(F)F)cc4)C3)cs2)s1 (stereo not shown) [Example 1954]	> 1000
Cc1ccc(CNC(=O)c2csc(-c3c(-c4ccc(F)cc4)n[nH]c3C3CCNCC3)n2)cc1 [Example 2078]	> 1000
CC(C)NC(=O)c1csc(-c2c(-c3ccc(F)cc3)n[nH]c2C2CCN(C(=O)C(Cc3ccccc3)NC(=O)OC(C)(C)C)CC2)n1 (stereo not shown) [Example 1045]	> 1000
Cc1ccc(N2CCN(C(=O)c3csc(-c4sc(C)nc4-c4ccc(F)cc4)n3)CC2)c(C)c1 [Example 1918]	> 1000
O=C(N[C@H](CO)Cc1ccccc1)c1csc(-c2c(-c3ccc(F)cc3)n[nH]c2C2CCNCC2)n1 [Example 2121]	> 1000
CC(C)NC(=O)c1csc(-c2c(-c3ccc(F)cc3)n[nH]c2C2CCN(C(=O)c3cc(C(C)C)cc(C(C)C)c3O)CC2)n1 [Example 1018]	> 1000
CC(C)NC(=O)c1csc(-c2c(-c3ccc(F)cc3)noc2CN(C)CC(O)c2ccccc2)n1 (stereo not shown) [Example 1560]	> 1000
Cc1nc(-c2ccc(F)cc2)c(-c2nc(C(=O)N(C)CC(O)c3ccccc3)cs2)s1 (stereo not shown) [Example 1885]	> 1000
CC(C)NC(=O)c1csc(-c2oc(CN(C)CCO)nc2-c2ccc(F)cc2)n1 [Example 1190]	> 1000

SMILES	IC50 [nM]
Cc1nc(-c2ccc(F)cc2)c(-c2nc(C(=O)NC3CONC3=O)cs2)s1 (stereo not shown) [Example 1736]	> 1000
CC(C)NC(=O)c1csc(-c2oc(CNCc3ccccc3OC(F)(F)F)nc2-c2ccc(F)cc2)n1 [Example 1175]	≤ 1000
CC(C)NC(=O)c1csc(-c2c(-c3ccc(F)cc3)noc2CNCCOc2ccccc2)n1 [Example 1454]	> 1000
COc1cc(OC)c(C(=O)N2CCC(c3[nH]nc(-c4ccc(F)cc4)c3-c3nc(C(=O)NC(C)C)cs3)CC2)c(OC)c1 [Example 997]	> 1000
O=C(NC1CCCC1)c1csc(-c2c(-c3ccc(F)cc3)n[nH]c2C2CCNCC2)n1 [Example 2044]	≤ 1000
O=C(NCc1cccc(F)c1)c1csc(-c2c(-c3ccc(F)cc3)n[nH]c2C2CCNCC2)n1 [Example 2080]	> 1000
CC(C)NC(=O)c1csc(-c2c(-c3ccc(F)cc3)noc2CN(C)CCc2ccccc2)n1 [Example 1552]	> 1000
COC[C@@H]1CCCN1Cc1onc(-c2ccc(F)cc2)c1-c1nc(C(=O)NC(C)C)cs1 [Example 1537]	> 1000
COc1ccccc1CNC(=O)c1csc(-c2c(-c3ccc(F)cc3)n[nH]c2C2CCNCC2)n1 [Example 2101]	> 1000
Cc1cc(C)c(NCc2nc(-c3ccc(F)cc3)c(-c3nc(C(=O)NC(C)C)cs3)o2)c(C)c1 [Example 1338]	> 1000
CC(C)NC(=O)c1csc(-c2c(-c3ccc(F)cc3)noc2CN2CCC(Cc3ccccc3)CC2)n1 [Example 1574]	> 1000
Cc1nc(-c2ccc(F)cc2)c(-c2nc(C(=O)N(C)C[C@H](O)c3ccc(O)c(O)c3)cs2)s1 [Example 1907]	> 1000
CC(C)CC(NC(=O)OC(C)(C)C)C(=O)NCc1onc(-c2ccc(F)cc2)c1-c1nc(C(=O)NC(C)C)cs1 (stereo not shown) [Example 804]	> 1000
CC(C)NC(=O)c1csc(-c2c(-c3ccc(F)cc3)n[nH]c2C2CCN(C(=O)c3cn(C)cn3)CC2)n1 [Example 831]	> 1000
Cc1nc(-c2ccc(F)cc2)c(-c2nc(C(=O)Nc3ncccc3C)cs2)s1 [Example 1962]	> 1000
CCOC(=O)N1CCC(NCc2nc(-c3ccc(F)cc3)c(-c3nc(C(=O)NC(C)C)cs3)o2)CC1 [Example 1164]	> 1000
CC(C)NC(=O)c1csc(-c2c(-c3ccc(F)cc3)n[nH]c2C2CCN(C(=O)c3cc(F)c(F)cc3Cl)CC2)n1 [Example 972]	> 1000
Cc1nc(-c2ccc(F)cc2)c(-c2nc(C(=O)Nc3ccccc3-n3cccc3)cs2)s1 [Example 2004]	> 1000
COc1ccc(-c2ccccc2)cc1NC(=O)c1csc(-c2sc(C)nc2-c2ccc(F)cc2)n1 [Example 2020]	> 1000
CC(C)NC(=O)c1csc(-c2c(-c3ccc(F)cc3)n[nH]c2C2CCN(C(=O)c3ccc(Oc4ccccc4)cc3)CC2)n1 [Example 1004]	> 1000
CC(C)NC(=O)c1csc(-c2c(-c3ccc(F)cc3)noc2CNCCc2cccc(Cl)c2)n1 [Example 1480]	> 1000
C#CCNCc1onc(-c2ccc(F)cc2)c1-c1nc(C(=O)NC(C)C)cs1 [Example 1384]	> 1000
CC(C)NC(=O)c1csc(-c2oc(CNc3ccc4c(c3)OCO4)nc2-c2ccc(F)cc2)n1 [Example 1339]	> 1000
